Assay results published in ChEMBL document CHEMBL1201862, “PubChem BioAssay data set” (2004).
Activity calls are given as the source filed them.

How the values were obtained:
[1] = target: Luciferin 4-monooxygenase (Photinus pyralis, UniProt P08659); experiment: Counter Screen for Luciferase-based Assay Positives. [Related pubchem assays: 620, 618, 411 ]
HT-1080 = experiment: cytotoxicity in HT1080 fibrosarcoma cells, cell-based, fluorescence readout (AID 620); assay type: functional; conditions: Homo sapiens
[2] = target: T1, COUP transcription factor 2 (Homo sapiens, UniProt P24468); experiment: Luminescence-based cell-based high throughput dose response assay to identify inhibitors of COUP-TFII (NR2F2).; assay type: functional;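 further: HEK293 cells transiently cotransfected with COUP-TFII expression vector and reporter; luciferase reporter luminescence driven by COUP-TFII from the pX2-168 reporter plasmid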
T1 sequence (P24468 whole entry): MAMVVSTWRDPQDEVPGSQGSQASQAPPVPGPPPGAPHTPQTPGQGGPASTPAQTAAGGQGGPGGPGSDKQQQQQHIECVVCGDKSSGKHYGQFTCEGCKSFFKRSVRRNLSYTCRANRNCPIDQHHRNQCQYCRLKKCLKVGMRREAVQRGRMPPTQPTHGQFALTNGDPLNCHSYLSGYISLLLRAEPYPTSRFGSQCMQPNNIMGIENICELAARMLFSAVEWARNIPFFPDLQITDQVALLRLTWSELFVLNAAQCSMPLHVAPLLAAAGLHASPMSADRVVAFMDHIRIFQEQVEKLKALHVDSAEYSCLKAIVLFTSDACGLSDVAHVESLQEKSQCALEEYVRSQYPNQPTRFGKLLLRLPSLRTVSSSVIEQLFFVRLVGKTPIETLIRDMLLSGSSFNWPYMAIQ

[3] = cytotoxicity in HEK-293T cells, dose response, cytotoxicity control for BCR NF-kB inhibitor project, luminescence, B-cell screen hits (AID 489021); assay type: functional, cell-based;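 further: HEK-293T cells carrying an NF-kB luciferase reporter; cells exposed to compound for about 14 hours before viability readout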
Galanin receptor type 2 = Galanin receptor type 2 (Homo sapiens, UniProt O43603); experiment: Dose Response cell-based high-throughput screening assay to identify antagonists of galanin receptor 2 (GALR2). [Related pubchem assays: 828, 866 ]; assay type: functional
[4] = M. tuberculosis H37Rv growth inhibitors, H37Rv strain (AID 1626); assay type: functional
SUMO-activating enzyme [5] = target: T2, SUMO-activating enzyme (Homo sapiens, UniProt Q9UBT2); experiment: SUMOylation inhibitor hit validation, confirmation, SUMOylation inhibitor project, biochemical, AlphaScreen (AID 2018); assay type: functional
Bcl-2-like protein 1 = Bcl-2-like protein 1 (Homo sapiens, UniProt Q07817); experiment: BCL-XL inhibitors, dose response, selectivity assay for MCL1 inhibitor project, biochemical, fluorescence polarization, 1536-well (AID 2218)
[6] = target: Induced myeloid leukemia cell differentiation protein Mcl-1 (Homo sapiens, UniProt Q07820); experiment: MCL1-BIM BH3 interaction inhibitors, dose response, biochemical, fluorescence polarization, BIM-BH3 peptide, 1536-well (AID 2217)
SUMO-activating enzyme [7] = target: T2, SUMO-activating enzyme; experiment: inhibitors of in vitro SUMOylation cascade, primary screen, biochemical, HTRF, uHTS (AID 2006); assay type: protein-complex assay
Estrogen receptor beta [8] = target: T3, Estrogen receptor beta (Homo sapiens, UniProt Q92731); experiment: ERβ–SRC-3 coactivator interaction inhibitors, confirmation, orthogonal assay, biochemical, ELISA, streptavidin-HRP readout (AID 1060)
Estrogen receptor beta [9] = target: T3, Estrogen receptor beta
[10] = target: T4, Carboxy-terminal domain RNA polymerase II polypeptide A small phosphatase 1 (Homo sapiens, UniProt Q9GZU7); experiment: inhibitors of CTDSP1, concentration-response testing, biochemical assay, absorbance-based, actives from ultra-high-throughput screening (AID 540297); assay type: functional
T4 sequence (Q9GZU7 whole entry): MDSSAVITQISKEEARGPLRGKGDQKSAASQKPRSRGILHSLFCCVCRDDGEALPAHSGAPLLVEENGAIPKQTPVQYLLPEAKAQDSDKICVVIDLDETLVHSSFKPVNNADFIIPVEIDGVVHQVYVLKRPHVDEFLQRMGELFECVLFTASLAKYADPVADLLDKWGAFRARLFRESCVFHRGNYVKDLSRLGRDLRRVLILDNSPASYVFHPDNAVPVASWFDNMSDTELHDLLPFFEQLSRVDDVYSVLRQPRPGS

T3 sequence (Q92731 whole entry): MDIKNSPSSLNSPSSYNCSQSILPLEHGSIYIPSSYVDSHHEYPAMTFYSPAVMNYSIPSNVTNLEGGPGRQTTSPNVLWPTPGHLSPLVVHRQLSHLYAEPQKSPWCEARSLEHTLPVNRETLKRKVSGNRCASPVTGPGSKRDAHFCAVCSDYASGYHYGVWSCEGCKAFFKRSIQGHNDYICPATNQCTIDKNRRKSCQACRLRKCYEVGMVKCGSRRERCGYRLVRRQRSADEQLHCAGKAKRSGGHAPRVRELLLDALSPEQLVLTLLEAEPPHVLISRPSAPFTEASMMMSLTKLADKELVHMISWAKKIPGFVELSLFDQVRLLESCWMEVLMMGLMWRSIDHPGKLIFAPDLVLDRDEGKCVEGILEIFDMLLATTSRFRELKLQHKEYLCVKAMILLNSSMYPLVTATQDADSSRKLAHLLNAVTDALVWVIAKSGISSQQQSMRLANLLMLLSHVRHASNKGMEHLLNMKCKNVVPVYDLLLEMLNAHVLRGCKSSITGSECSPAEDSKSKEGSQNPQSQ
T2 sequence (Q9UBE0 whole entry): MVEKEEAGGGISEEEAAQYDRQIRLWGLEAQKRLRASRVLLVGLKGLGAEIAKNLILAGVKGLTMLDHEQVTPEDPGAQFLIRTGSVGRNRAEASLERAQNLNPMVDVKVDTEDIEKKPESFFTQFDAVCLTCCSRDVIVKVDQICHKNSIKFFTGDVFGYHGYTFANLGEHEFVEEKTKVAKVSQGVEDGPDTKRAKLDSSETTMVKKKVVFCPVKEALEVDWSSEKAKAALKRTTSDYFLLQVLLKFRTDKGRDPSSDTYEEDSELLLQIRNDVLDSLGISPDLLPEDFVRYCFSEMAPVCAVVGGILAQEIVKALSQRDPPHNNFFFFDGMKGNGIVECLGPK
T2 sequence (Q9UBT2 whole entry): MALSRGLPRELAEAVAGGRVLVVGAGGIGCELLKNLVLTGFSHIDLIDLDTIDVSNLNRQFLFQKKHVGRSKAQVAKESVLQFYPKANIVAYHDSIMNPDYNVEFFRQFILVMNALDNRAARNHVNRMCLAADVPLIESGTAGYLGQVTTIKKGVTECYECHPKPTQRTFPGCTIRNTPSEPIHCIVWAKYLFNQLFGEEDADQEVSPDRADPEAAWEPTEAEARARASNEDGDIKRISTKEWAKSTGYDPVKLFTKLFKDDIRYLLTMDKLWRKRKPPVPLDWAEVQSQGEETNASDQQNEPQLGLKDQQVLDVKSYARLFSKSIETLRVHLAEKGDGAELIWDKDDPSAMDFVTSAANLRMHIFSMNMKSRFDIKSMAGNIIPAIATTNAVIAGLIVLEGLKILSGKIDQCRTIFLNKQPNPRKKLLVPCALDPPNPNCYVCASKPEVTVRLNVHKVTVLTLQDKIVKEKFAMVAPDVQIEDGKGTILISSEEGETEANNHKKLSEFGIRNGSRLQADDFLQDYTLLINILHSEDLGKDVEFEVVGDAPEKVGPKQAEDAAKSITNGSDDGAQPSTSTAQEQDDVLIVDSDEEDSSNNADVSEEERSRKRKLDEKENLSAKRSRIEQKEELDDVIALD
Chain of Bcl-2-like protein 1 (Q07817 whole entry): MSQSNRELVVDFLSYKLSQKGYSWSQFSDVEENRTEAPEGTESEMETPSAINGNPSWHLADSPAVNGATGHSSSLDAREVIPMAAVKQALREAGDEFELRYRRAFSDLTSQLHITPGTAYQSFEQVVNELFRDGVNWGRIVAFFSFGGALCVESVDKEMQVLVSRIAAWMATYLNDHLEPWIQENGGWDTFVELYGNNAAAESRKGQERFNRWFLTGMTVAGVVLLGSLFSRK
Chain of Luciferin 4-monooxygenase (P08659 whole entry): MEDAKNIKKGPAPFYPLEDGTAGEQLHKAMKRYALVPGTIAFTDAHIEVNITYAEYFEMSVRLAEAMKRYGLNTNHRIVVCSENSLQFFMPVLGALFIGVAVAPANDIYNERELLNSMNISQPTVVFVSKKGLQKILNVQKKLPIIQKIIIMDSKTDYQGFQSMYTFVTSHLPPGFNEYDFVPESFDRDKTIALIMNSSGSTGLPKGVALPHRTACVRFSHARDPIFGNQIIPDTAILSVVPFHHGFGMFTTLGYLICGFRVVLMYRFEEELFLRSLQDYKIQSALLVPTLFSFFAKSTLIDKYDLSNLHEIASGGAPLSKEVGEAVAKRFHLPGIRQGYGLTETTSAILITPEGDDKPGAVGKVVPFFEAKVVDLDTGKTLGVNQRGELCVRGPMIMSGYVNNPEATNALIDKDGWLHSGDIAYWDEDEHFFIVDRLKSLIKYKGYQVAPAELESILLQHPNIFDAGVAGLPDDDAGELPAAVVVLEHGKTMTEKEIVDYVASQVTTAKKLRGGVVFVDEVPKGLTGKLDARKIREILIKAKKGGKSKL
Chain of Induced myeloid leukemia cell differentiation protein Mcl-1 (Q07820 whole entry): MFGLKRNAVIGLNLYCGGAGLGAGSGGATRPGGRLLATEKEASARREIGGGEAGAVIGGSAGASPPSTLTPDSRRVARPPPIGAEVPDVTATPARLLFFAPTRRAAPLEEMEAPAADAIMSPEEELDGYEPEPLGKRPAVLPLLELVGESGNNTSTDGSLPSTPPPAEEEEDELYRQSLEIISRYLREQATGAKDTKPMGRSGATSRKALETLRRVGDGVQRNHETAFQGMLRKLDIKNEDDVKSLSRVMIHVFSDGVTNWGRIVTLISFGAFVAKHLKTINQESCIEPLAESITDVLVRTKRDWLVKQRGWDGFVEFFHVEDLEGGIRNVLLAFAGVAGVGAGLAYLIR
Chain of Galanin receptor type 2 (O43603 whole entry): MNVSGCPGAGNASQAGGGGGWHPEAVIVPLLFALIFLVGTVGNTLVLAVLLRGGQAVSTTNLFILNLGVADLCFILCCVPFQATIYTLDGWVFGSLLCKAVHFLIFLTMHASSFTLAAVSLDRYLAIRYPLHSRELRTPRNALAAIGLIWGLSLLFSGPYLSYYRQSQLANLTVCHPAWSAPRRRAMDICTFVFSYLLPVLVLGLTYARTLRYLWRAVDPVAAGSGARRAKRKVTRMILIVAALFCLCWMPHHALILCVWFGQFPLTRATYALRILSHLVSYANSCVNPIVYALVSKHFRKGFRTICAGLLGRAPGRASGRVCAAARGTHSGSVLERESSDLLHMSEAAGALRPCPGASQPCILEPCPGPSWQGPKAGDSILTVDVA

## Clc1ccccc1OCc1nc(-c2ccccn2)no1
[1]
  EC50: > 100 µM (not active)
HT-1080
  EC50: > 50 µM (not active)

## Cc1cc(C)c(S(=O)(=O)NCc2ccncc2)c(C)c1
[2]
  IC50: 4.96 µM (active)
[3]
  IC50: > 80 µM (inactive)
Galanin receptor type 2
  IC50: > 42 µM (not active)

## COc1ccc(N2CCN(c3nc(-c4cccs4)nc4ccccc34)CC2)cc1
[4]
  IC50: > 100 µM (active)

## Cc1ccc(C(=O)O)cc1-c1ccc(/C=C2\SC(=O)N(CC(=O)Nc3ccc4c(c3)OCO4)C2=O)o1
SUMO-activating enzyme [5]
  IC50: 4.35 µM (active)
Bcl-2-like protein 1
  IC50: > 109 µM (not active)
[6]
  IC50: > 4.03 µM (active)
SUMO-activating enzyme [7]
  IC50: 10.3 µM (active)

## CCOC(=O)C1CCCN(C(=O)c2ccc(CS(=O)(=O)c3ccc(C)cc3)o2)C1 (stereo not drawn)
Estrogen receptor beta [8]
  IC50: < 0.023 µM (not active)
Estrogen receptor beta [9]
  IC50: 13.7 µM (active)
[10]
  IC50: 7.41 µM (active)
